Test results published in patent US20190075794A1, “BIODEGRADABLE ANTIMICROBIAL COMPOSITIONS AND USES THEREOF TO COMBAT MICROORGANISMS” (IPABC LTD, priority 2015, published 2019).

Tests used:
E. coli = assay: Assay for antimicrobial activity: test solution incubated with 10^6 CFUs bacteria, neutralised, plated, growth assessed after 24 hours; type: cell-based; parameters: key to Growth of E. coli 24 hrs after treatment, 1:100 dilution of bacterial reaction mixture / Growth of E. coli 24 hrs after treatment, 1:1000 dilution of bacterial reaction mixture / Growth of E. coli 24 hrs after treatment, 1:10 dilution of bacterial reaction mixture: + plates with microbial growth; − for plates that had no growth; details: for Growth of E. coli 24 hrs after treatment, 1:1000 dilution of bacterial reaction mixture / Growth of E. coli 24 hrs after treatment, 1:100 dilution of bacterial reaction mixture / Growth of E. coli 24 hrs after treatment, 1:10 dilution of bacterial reaction mixture: 10^6 CFUs, 30 min RT; for Concentration at which growth of E. coli is inhibited: 30 min treatment
Method: • APG: AG6210 (Akzo Nobel Surface Chemistry AB) 60% aqueous solution of a 60:40 mixture of decyl-β-D-glucopyranoside and octyl-β-D-glucopyranoside • Decyl-β-D-glucopyranoside—EC number: 259-218-1; CAS number: 54549-25-6 • Octyl-β-D-glucopyranoside—EC number: 414-420-0; CAS number: 108081-06-7 • ε-polylysine: Zhengzhou Bainafo Co., Ltd. […] L(+)-lactic acid. […] CAS number: 79-33-4 • Neutraliser (NF): 30 ml Tween 80, 30 g saponine, 1 g histidine, 1 g cysteine dissolved in 1000 ml water; sterilised by autoclaving. • RBT 24/7: Residual Barrier Technology. Proprietary antimicrobial surface sanitizer. • Culture media: Oxoid plate count agar (CM0463): […]

[1] = at 20° C.; cited from earlier work
[2] = acid(s) alone, printed as cannot inhibit growth when used at up to, combined concentration for lactic + citric
[3] = Table 1: L(+)-lactic acid alone, listed as 250 mM L(+)-Lactic Acid
[4] = Table 1: L(+)-lactic acid alone, listed as 500 mM L(+)-Lactic Acid
[5] = Table 1: L(+)-lactic acid alone, listed as 1M L(+)-Lactic Acid, 1M L(+)-lactic acid
[6] = Table 1: L(+)-lactic acid alone, listed as 2M L(+)-Lactic Acid, 2M L(+)-lactic acid

| Compound | Growth of E. coli 24 hrs after treatment, 1:1000 dilution of bacterial reaction mixture (E. coli; Table 2: citric acid alone, listed as 50 mM Citric Acid) | Concentration at which growth of E. coli is inhibited (E. coli; [2]) [mM] | Growth of E. coli 24 hrs after treatment, 1:100 dilution of bacterial reaction mixture (E. coli; Table 1: L(+)-lactic acid alone, listed as 100 mM L(+)-Lactic Acid) | Growth of E. coli 24 hrs after treatment, 1:1000 dilution of bacterial reaction mixture (E. coli; Table 1: L(+)-lactic acid alone, listed as 100 mM L(+)-Lactic Acid, 100 mM L(+)-lactic acid) | Growth of E. coli 24 hrs after treatment, 1:10 dilution of bacterial reaction mixture (E. coli; [3]) | Growth of E. coli 24 hrs after treatment, 1:100 dilution of bacterial reaction mixture (E. coli; [3]) | Growth of E. coli 24 hrs after treatment, 1:1000 dilution of bacterial reaction mixture (E. coli; Table 1: L(+)-lactic acid alone, listed as 250 mM L(+)-Lactic Acid, 250 mM L(+)-lactic acid) | Growth of E. coli 24 hrs after treatment, 1:10 dilution of bacterial reaction mixture (E. coli; [4]) | Growth of E. coli 24 hrs after treatment, 1:100 dilution of bacterial reaction mixture (E. coli; [4]) | Growth of E. coli 24 hrs after treatment, 1:1000 dilution of bacterial reaction mixture (E. coli; Table 1: L(+)-lactic acid alone, listed as 1M L(+)-Lactic Acid) | Growth of E. coli 24 hrs after treatment, 1:10 dilution of bacterial reaction mixture (E. coli; [5]) | Growth of E. coli 24 hrs after treatment, 1:100 dilution of bacterial reaction mixture (E. coli; [5]) | Growth of E. coli 24 hrs after treatment, 1:1000 dilution of bacterial reaction mixture (E. coli; Table 1: L(+)-lactic acid alone, listed as 2M L(+)-Lactic Acid) | Growth of E. coli 24 hrs after treatment, 1:10 dilution of bacterial reaction mixture (E. coli; [6]) | Growth of E. coli 24 hrs after treatment, 1:100 dilution of bacterial reaction mixture (E. coli; [6]) | Concentration at which growth of E. coli is inhibited (E. coli; lactic acid alone) | CMC [1] |
| --- | --- | --- | --- | --- | --- | --- | --- | --- | --- | --- | --- | --- | --- | --- | --- | --- | --- |
| O=C(O)CC(O)(CC(=O)O)C(=O)O [Citric Acid, Citric acid] | + | > 50 |  |  |  |  |  |  |  |  |  |  |  |  |  |  |  |
| C[C@H](O)C(=O)O [L(+)-Lactic Acid, L(+)-lactic acid] |  | > 40 | + | + | + | + | − | + | + | − | + | + | − | − | − | at least 1 M |  |
| CCCCCCCCCCO[C@@H]1O[C@H](CO)[C@@H](O)[C@H](O)[C@H]1O [decylglucoside, Decyl-β-D-glucopyranoside] |  |  |  |  |  |  |  |  |  |  |  |  |  |  |  |  | approximately 300 ppm |
